This is an account of results in patent US20210190799A1, “METHOD FOR DIAGNOSING LIVER DISEASES AND METHOD FOR SCREENING THERAPEUTIC AGENT FOR LIVER DISEASES USING CHANGES IN EXPRESSION OF TM4SF5 PROTEIN” (SEOUL NATIONAL UNIVERSITY R&DB FOUNDATION, priority 2017, published 2021).

One data set relates to STAT3 protein. Nature of the data set: Western blotting of separated liver tissue treated with laminin. As to conditions: FIG. 26B. Type of data set: cell-based, mouse. As to the method:
Particularly, a lysis buffer [50 mM Tris-HCl (pH 7.4), 1% NP40, 0.25% sodium dioxycholate, 150 mM NaCl, 1 mM EDTA], SDS (sodium dodecyl sulfate), Na3O4V and protease inhibitor cocktail (GenDepot) were added to the obtained liver tissue, which was left at 4° C. for 15 minutes to lyse the tissue. The lysate was centrifuged for 30 minutes under the conditions of 13,000 rpm and 4° C. to obtain a supernatant. The proteins present in the supernatant were quantified using BCA reagent (Thermo Scientifics). 4× sample buffer [4 ml of 100% glycerol, 2.4 ml of Tris-HCl (pH 6.8), 0.8 g of SDS, 4 mg of brominated phenol blue, 0.4 ml of β-mercaptoethanol and 3.1 ml of H2O, final volume: 10 ml] was added thereto, which was boiled at 100° C. for 5 minutes. SDS-PAGE was performed, and the proteins were transferred to a nitrocellulose membrane (Whatman). The membrane was pretreated in a solution containing 5% skim milk for 1 hour, and reacted with the antibodies against laminin (Abcam, UK), ACC1 (Cell Signalling, USA), SREBP1 precursor (Santa cruz, USA), mature SREBP1 (Santa cruz, USA), MTP (Santa cruz, USA), PPARα (Santa cruz, USA), pY^706STAT3 (Millipore, USA), STAT3 (Santa cruz, USA), α-tubulin (Sigma, USA) and TM4SF5 (J Clin Invest. 2008 April; 118(4): 1354-66) as the primary antibodies at 4° C. for 15 hours. […]
(A western blot detects proteins with antibodies after separation by electrophoresis.)

In a further data set the test system is TM4SF5 gene. Nature of the data set: TM4SF5 shRNA in differentiated 3T3-L1 adipocytes (oil red O staining, real-time PCR). Type of data set: cell-based, mouse. Here is the method: To confirm whether the fat production was suppressed when the expression of TM4SF5 protein was suppressed in adipocytes, oil red O staining was performed.
First, mouse 3T3-L1 adipocyte progenitor cells were prepared by culturing in DMEM supplemented with 10% NBCS (Gibco, 16010159) and 1% penicillin/streptomycin. The prepared cells were distributed in a 6-well plate at the density of 1×10^5/well.
After 4 days of the distribution, when the progenitor cells were full in the wells, the cells were further cultured for 48 hours. Then, the medium was replaced with the adipocyte differentiation medium (MDI medium containing 10% FBS) supplemented with 1 μM dexamethasone, 0.5 mM IBMX (3-Isobutyl-1-methylxanthine) and 10 μg/m ? of insulin (Sigma, USA). After culturing the cells for 2 days, the medium was replaced with DMEM supplemented with 10% FBS and 10 μg/m ? of insulin. After replacing with the medium, the cells were cultured for 10 days, and then cultured using DMEM supplemented with 10% FBS and 1% penicillin/streptomycin to obtain differentiated adipocytes. The adipocytes were transfected with TM4SF5 shRNA (shTM4SF5, 5′-[…]-3′, SEQ. ID. NO: 35) using lipofectamine 3000.
Whether the expression of the fat-related gene changed when the expression of TM4SF5 gene was suppressed was confirmed by the following method. […]

The test system of a further data set is TM4SF5 protein. Nature of the data set: shTM4SF5 in hepatocytes of the liver disease model mouse, Western blotting. The class given is cell-based. The following applies: FIG. 25. The text has this: First, hepatocytes were obtained from the isolated liver tissue as described above. The expressions of TM4SF5 and STAT3 proteins in the obtained hepatocytes were suppressed by transfecting the cells with shTM4SF5 or silencing STAT3 [On-Target plus SMART pool siRNA (Thermo)], and then the expression changes of laminin were confirmed by Western blotting as described above.

With laminin, the “expression level of STAT3 protein” value in the data set on STAT3 protein is given as “not changed”.

Consider “shTM4SF5: TM4SF5 shRNA, 5′-CCTGGAATGTGACGCTCTTCTCGCTGCTG-3′, SEQ. ID. NO: 35 (listed as DNA, chemistry not fully specified)”, for which the “production of fat, oil red O staining” value in the data set with TM4SF5 gene (FIG. 6A) is listed as “inhibited”. The “expressions of Pparγ, CD36, Fasn, Srebp1 and Fabp1 genes” value with TM4SF5 gene (FIG. 6B) is “suppressed”. Also, in the data set with TM4SF5 protein, the “expression of laminin protein” value is given as “suppressed”.
